ChEMBL document CHEMBL3638701, “Inhibitors of protein kinases” (2015)

Tests used:
[1] = molecular target: Cyclin-dependent kinase 9 (Homo sapiens, UniProt P50750); test: (§1) In Vitro Kinase Inhibition Assay: In vitro kinase assay analysis may be performed using standard techniques described in the art. These techniques are also used by commercial services providers in order to offer in vitro kinase activity assay services, e.g. the assays offered by Millipore Inc. (worldwide website www(dot)millipore.com), ProQinase GmbH (worldwide website www(dot)proqinase.de) and others. All kinase assays were performed in 96-well FlashPlates from Perkin Elmer/NEN (Boston, Mass., USA) in a 50ul reaction volume. The reaction mixture was pipetted in four steps in the following order: 20ul of assay buffer (standard buffer),5ul of ATP solution (in H2O, 5 ul of test compound (in 10% DMSO), 10ul of substrate/10ul of enzyme solution (premixed)The assay for all enzymes contained 60 mM HEPES-NaOH (pH 7.5), 3 mM MgCl2, 3 mM MnCl2, 3uM Na-Orthovanadate, 1.2 mM DTT, 50 ug/ml PEG2000, 1 uM [33P]-ATP (approx. 5x1005 cpm per well).
[2] = molecular target: Cyclin-dependent kinase 5 (Homo sapiens, UniProt Q00535); test: as §1
[3] = molecular target: Interleukin-1 receptor-associated kinase 1 (Homo sapiens, UniProt P51617); test: as §1
[4] = molecular target: Glycogen synthase kinase-3 beta (Homo sapiens, UniProt P49841); test: as §1
[5] = molecular target: Cyclin-dependent kinase 3 (Homo sapiens, UniProt Q00526); test: as §1
[6] = molecular target: Cyclin-dependent kinase 1 (Homo sapiens, UniProt P06493); test: as §1
[7] = molecular target: Glycogen synthase kinase-3 alpha (Homo sapiens, UniProt P49840); test: as §1
[8] = molecular target: Cyclin-dependent kinase 6 (Homo sapiens, UniProt Q00534); test: as §1
[9] = molecular target: Cyclin-dependent kinase 7 (Homo sapiens, UniProt P50613); test: as §1
[10] = molecular target: Cyclin-dependent kinase 2 (Homo sapiens, UniProt P24941); test: as §1

Chain of Cyclin-dependent kinase 7 (P50613 whole entry): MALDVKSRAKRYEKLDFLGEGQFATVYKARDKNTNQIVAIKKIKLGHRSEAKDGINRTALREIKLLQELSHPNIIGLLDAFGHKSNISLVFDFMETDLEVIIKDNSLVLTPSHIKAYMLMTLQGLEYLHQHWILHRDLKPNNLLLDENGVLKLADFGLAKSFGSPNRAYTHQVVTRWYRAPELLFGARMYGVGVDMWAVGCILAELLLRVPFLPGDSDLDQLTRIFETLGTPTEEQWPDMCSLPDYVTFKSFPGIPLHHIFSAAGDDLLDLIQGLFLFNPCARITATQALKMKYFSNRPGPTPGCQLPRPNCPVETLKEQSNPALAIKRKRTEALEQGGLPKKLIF
Chain of Cyclin-dependent kinase 9 (P50750 whole entry): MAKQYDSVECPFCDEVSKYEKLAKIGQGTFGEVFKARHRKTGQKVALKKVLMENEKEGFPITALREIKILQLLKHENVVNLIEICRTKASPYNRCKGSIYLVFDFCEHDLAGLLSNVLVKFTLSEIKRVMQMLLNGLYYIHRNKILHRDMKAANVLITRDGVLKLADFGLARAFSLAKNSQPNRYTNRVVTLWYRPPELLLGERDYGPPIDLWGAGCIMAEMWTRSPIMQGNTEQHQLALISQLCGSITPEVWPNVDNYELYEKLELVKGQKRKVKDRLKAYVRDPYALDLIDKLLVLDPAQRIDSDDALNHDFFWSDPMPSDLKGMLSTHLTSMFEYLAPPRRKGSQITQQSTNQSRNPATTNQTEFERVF
Chain of Cyclin-dependent kinase 3 (Q00526 whole entry): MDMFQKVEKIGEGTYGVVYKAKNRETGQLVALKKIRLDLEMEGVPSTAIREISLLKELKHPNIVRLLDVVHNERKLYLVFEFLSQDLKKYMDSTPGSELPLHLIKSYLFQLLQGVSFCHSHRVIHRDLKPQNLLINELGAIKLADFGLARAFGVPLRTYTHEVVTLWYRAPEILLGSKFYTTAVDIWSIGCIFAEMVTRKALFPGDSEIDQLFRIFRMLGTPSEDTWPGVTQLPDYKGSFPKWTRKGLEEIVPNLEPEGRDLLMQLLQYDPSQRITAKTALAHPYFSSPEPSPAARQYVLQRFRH
Chain of Interleukin-1 receptor-associated kinase 1 (P51617 whole entry): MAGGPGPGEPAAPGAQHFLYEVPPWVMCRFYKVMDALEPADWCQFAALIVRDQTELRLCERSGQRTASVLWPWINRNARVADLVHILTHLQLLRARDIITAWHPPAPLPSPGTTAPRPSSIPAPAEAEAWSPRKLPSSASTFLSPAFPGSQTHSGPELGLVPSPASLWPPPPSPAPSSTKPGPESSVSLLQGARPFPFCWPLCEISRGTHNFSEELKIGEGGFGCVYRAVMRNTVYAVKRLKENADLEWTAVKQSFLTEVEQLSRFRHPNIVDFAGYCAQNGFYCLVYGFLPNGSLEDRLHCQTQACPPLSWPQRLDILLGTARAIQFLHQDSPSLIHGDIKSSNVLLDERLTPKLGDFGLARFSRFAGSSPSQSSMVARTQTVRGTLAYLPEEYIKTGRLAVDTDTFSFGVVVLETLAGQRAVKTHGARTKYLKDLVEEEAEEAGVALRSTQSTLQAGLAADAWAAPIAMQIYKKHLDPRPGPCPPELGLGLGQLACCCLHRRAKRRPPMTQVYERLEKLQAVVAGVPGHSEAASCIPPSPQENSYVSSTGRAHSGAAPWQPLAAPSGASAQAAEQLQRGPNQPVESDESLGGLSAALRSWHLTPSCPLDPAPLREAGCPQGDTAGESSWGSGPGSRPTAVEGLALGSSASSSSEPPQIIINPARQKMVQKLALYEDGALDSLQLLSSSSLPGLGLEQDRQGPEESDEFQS
Chain of Cyclin-dependent kinase 6 (Q00534 whole entry): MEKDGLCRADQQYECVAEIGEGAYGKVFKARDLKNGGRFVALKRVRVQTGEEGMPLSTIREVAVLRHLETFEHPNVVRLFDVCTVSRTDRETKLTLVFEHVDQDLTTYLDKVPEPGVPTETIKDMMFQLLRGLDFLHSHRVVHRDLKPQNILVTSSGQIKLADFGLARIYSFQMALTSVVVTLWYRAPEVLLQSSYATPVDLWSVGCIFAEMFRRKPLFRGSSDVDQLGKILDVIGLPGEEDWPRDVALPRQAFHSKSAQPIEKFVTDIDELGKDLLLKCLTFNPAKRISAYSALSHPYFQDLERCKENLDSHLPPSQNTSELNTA
Chain of Glycogen synthase kinase-3 alpha (P49840 whole entry): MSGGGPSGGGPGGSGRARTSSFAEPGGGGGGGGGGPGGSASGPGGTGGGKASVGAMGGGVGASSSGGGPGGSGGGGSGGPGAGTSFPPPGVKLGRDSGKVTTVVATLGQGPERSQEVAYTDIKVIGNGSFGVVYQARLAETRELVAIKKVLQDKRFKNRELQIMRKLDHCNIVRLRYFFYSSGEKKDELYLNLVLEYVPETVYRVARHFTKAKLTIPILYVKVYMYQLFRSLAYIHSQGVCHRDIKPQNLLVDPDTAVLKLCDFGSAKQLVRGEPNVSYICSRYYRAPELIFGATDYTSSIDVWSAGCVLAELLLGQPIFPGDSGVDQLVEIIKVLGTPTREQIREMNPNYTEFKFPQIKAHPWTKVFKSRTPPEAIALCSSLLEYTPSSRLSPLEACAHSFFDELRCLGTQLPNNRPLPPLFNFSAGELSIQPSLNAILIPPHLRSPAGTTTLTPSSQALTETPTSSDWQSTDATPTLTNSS
Chain of Glycogen synthase kinase-3 beta (P49841 whole entry): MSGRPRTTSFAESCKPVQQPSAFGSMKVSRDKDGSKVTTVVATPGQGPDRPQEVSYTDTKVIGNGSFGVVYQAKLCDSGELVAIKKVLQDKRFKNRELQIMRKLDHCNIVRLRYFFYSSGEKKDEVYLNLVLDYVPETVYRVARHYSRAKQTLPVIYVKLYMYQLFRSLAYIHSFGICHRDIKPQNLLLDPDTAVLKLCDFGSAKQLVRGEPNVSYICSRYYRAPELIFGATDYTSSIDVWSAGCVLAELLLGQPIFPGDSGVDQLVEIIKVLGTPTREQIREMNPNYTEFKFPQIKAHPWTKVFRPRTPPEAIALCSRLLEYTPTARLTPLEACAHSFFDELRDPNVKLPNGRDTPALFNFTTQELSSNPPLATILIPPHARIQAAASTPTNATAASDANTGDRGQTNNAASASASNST
Chain of Cyclin-dependent kinase 1 (P06493 whole entry): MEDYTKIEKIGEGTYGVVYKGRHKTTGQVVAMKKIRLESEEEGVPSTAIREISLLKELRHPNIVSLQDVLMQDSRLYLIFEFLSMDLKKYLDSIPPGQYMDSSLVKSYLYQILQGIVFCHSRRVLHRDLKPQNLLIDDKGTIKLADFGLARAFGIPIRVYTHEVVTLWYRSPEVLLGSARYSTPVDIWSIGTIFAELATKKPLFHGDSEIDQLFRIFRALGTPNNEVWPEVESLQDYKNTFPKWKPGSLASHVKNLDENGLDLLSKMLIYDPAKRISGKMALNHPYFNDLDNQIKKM
Chain of Cyclin-dependent kinase 5 (Q00535 whole entry): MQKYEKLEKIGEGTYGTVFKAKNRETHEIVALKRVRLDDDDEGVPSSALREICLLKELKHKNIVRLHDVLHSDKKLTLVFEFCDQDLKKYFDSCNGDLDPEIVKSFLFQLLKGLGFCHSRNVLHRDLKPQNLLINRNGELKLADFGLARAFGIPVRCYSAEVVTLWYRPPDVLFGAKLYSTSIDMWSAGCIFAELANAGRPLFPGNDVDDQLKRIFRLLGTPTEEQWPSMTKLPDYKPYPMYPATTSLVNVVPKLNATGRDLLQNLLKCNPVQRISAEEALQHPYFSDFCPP

IC50 [1]: 10 nM
IC50 [2]: 1340 nM
IC50 [3]: > 5000 nM
IC50 [4]: 857 nM
IC50 [5]: 1450 nM
IC50 [6]: 1880 nM
IC50 [7]: 99 nM
IC50 [8]: > 5000 nM
IC50 [9]: > 5000 nM
IC50 [10]: 913 nM
SMILES: COc1cc(F)ccc1-c1ccnc(NC(=O)[C@@H]2CC[C@H](NC(C)=O)C2)c1
